Source: US6576622B1, “Drug combination for the treatment of viral diseases” (University of Medicine & Dentistry of New Jersey, priority 1995, dated 2003)

Tests used:
[1] = tested on: R116 cell line; assay: MTT cytotoxicity assay in R116 cells; format: cell-based; settings: persistently resistant clone R116, three days
Protocol: Three days later, drug cytotoxicity was quantitated with a standard MTT assay in which the uptake and metabolism of 3-[4,5-dimethylthiazol-2-yl]2,5-dephenyltetrazolium bromide (MTT) by cells was measured (14). The amount of formazan produced in 2 hours was determined by dissolving the product in 100% DMSO and then measuring the absorbance at 570 nm.
HeLa-T4 is the parental cell line.
Cells sensitive, parental HT4 (open circle), S1 (solid square), Spool (solid circle) and refractory, R116 (open square) were grown in the presence of various concentrations of FUdR. Three days latter, cell viability was determined by the MTT reduction method.

[2] = tested on: HIV-1IIIB; assay: HIV-1IIIB infection of S1 and R116 cells with AZT and FUdR (RT activity); format: cell-based; settings: 0.1 μM AZT
Protocol: Infected cells were isolated in gpt selective media and expanded into cell lines. […] Cell line S1 is a control cell line.
Cell free supernatants were assayed for RT activity every two days. Results are the mean of triplicate cultures. Standard deviations were <15%.

[3] = tested on: recombinant HIV, recombinant MLV, or replication-competent HIV; format: cell-based
Source text: The presence of a selectable marker gene in the recombinant HIV allowed the isolation of cells infected by the recombinant viruses in the presence of d4T. These cells were characterized by infection with both additional recombinant viruses and by replication-competent viruses.
(§1) Table 6. Colony formation and persistent resistance after Hela-T4 cell infection with MLV-neo virus in the presence and absence of various antiviral agents.

[4] = tested on: HIV-gpt; assay: HIV-gpt colony formation after infection of HeLa-T4 cells in the presence of antiretroviral agents; format: cell-based; settings: for Number of colonies +AZT: colonies by day 10
[5] = tested on: HIV-1 IIIB; assay: HIV-1 IIIB infection of Jurkat JE6.1 cell populations, AZT IC50 with FUdR (RT activity); format: cell-based; settings: for IC50: Human immunodeficiency virus 1, IIIB, Jurkat, 144 h, concentration of AZT for 50% inhibition of RT activity at day 6, F = μM FUdR
Protocol: HIV-1 production in infected, cultures was determined by a ^32P-based assay as described (34). RT activity was determined by […] of ^32P bound to the DE81 paper by using a Molecular Dynamics phosphorimager. The results are reported as pixel units per microliter of the reaction mixture.
In these experiments, three populations of cells were studied.

[6] = HPLC analysis of phosphorylated AZT metabolites in clones incubated with 3H-AZT; format: in vitro ADME; settings: 3H-AZT for 4 hours, HPLC
Protocol: Cell lines were incubated with ^3H-thymidine or ^3H-AZT for 4 hours. Dried methanol extracts of the clones were redissolved in 60 μof distilled water and centrifuged to remove undissolved material. Twenty microliters of the sample was injected and separated on a 10×100 mm Rainin Hydropore anion exchange column. The nucleosides were eluted from the column with a linear gradient of potassium phosphate (5 mM to 1 M, pH4.0) at a flow rate of 1 ml/min. The samples were collected (0.5 ml), mixed with 5 ml Packard scintillation fluid, and quantitated using a liquid scintillation counter. Phosphorylated derivatives of thymidine and AZT were identified with authentic standards.
Pool sizes were determined by incubation of cells with ^3H-AZT for 4 hours followed by cellular extraction and HPLC. The numbers are expressed as pmoles/10^6 cells. The numbers in parentheses represent the percentage of total radioactive species in that pool.

[7] = tested on: HIV-1IIIB; settings: same AZT concentration as for the persistently resistant clone
[8] = tested on: MLV-neo; assay: MLV-neo colony formation in the presence of antiviral agents; format: cell-based, Moloney Leukemia virus; settings: Hela-T4, AZT 10 uM, DDI 50 uM, DDC 10 uM, D4T 50 uM, control 9050
Protocol: Production of recombinant HIV-gpt has been described elsewhere (26). The amphotropic cell line PA317 was transfected with the recombinant murine retrovirus pLXSN (36) and was used as the source of the recombinant MLV-neo virus. Stock preparations of HIV-1IIIB were harvested from H9 cells by the “shake off method” (13). Stock virus infectivity was determined by end-point dilution in MT-2 cells (32). Virus induced cytopathic effect was scored 7 days post-infection and the TCID50 was calculated with the Reed and Muench equation (33).
To confirm this high rate of infection in the absence of genetic drug resistance, we used several other recombinant viruses and host cells. […] A high rate of infection of Jurkat cells in the presence of d4T has also been seen.
Table 5. HIV-gpt produced in COS cells by transfection with plasmids (plasmid derived) is compared with HIV-gpt produced by, rescue from H9/HIV-gpt cell line after infection with HIV-IIIB and cells infected with MLV-neo.
as §1

[9] = tested on: HIV-LacZ; format: cell-based

Compound: Cc1cn([C@H]2C[C@H](N=[N+]=[N-])[C@@H](CO)O2)c(=O)[nH]c1=O [AZT, 3′-Azido-3′-deoxythymidine]
- cytotoxic concentration that killed 50% [1]: greater than 1 mM
- HIV replication in the presence of drug ([2]; R116 cell line refractory to AZT, FIG. 7B): significant HIV replication
- antiviral efficacy ([2]; control S1 cell line, multiplicity of infection of 1, FIG. 7A): potent antiviral efficacy
- subset of cells persistently refractory to d4T that were also refractory to the antiviral effects of AZT [3]: approximately 20%
- Frequency ([3]; frequency of persistently resistant colonies, Hela-T4, MLV-neo): 2.2 × 10^−4
- Number of colonies ([4]; HeLa-T4, plasmid derived HIV-gpt (COS cells), AZT 10 μM, DDI 50 μM, D4T 50 μM, no drug control 8800): 12
- Frequency of colony formation in the presence of AZT ([4]; HeLa-T4 cells, 10 μM AZT, HIV-gpt by rescue with HIV-1): 5.0 × 10^−4
- Number of colonies +AZT ([4]; HeLa-T4 cells, 10 μM AZT, HIV-gpt by rescue with HIV-1, −AZT 1.8 × 10^4): 9
- Frequency of colony formation in the presence of AZT ([4]; HeLa-T4 cells, 10 μM AZT, plasmid-derived (COS cells) HIV-gpt): 5.2 × 10^−4
- Number of colonies +AZT ([4]; HeLa-T4 cells, 10 μM AZT, plasmid-derived (COS cells) HIV-gpt, −AZT 3.1 × 10^4): 16
- prevalence of colony formation after infection in the presence of AZT ([4]; HeLa-T4 cells, 10 μM AZT, similar with the two preparations of HIV-gpt): ~5×10^−4
- IC50 ([5]; JE6.1AZTR cells (refractory to AZT)): 0.6 µM
- IC50 ([5]; JE6.1Con cells (control)): 0.2 µM
- IC50 ([5]; JE6.1 cells): 0.3 µM
- increase AZT IC50 ([5]; JE6.1AZTR entire population): 2 fold
- concentration in cells ([6]; R116 (“persistently resistant”) cell line): 0.0155 pmoles/10^6 cells
- concentration in cells ([6]; S1 (sensitive) cell line): 0.0206 pmoles/10^6 cells
- inhibition of infection of control cells by replication-competent HIV [7]: virtually complete inhibition
- No. of colonies [8]: 12
- inhibition of HIV-LacZ infection ([9]; 10 μM AZT, nine of twelve cell lines, like wild type HeLa-T4 cells): complete inhibition of infection
- Frequency ([9]; frequency of persistently resistant colonies, HeLa-T4, plasmid derived HIV-gpt): 3.4 × 10^−4
